Assay: Body weight monitoring and tolerability in Study #2
Format: in vivo, C57Bl/6 mice
Settings: triple oropharyngeal BLM, within the first 7 days, compared to saline group
Source text: Figure A illustrates the setup of the pharmacological experiment identified as Study #2 (see also Table S2 in the Supporting Information). After triple BLM instillation, all mice underwent μCT imaging on days 14 and 21, indicating the beginning and the end of the therapeutic window. , On day 14, the BLM-treated mice were divided into 5 groups, namely, Vehicle, NINT (23), NINT (94), PepNIN 1 (23), and Ligand 11 (23). The reference standard in our drug discovery studies is NINT (94), representing the ideal dosage (94 μmol/kg) of the FDA-approved drug that produces antifibrotic effects in the preclinical BLM model. To better emphasize the synergistic therapeutic effect of nintedanib when it is covalently conjugated with our integrin ligand, the stoichiometric dose of nintedanib within the PepNIN 1 group was reduced by four times (to 23 μmol/kg). […]
The experiments were carried out on male C57Bl/6 mice aged 7–8 weeks, purchased from Envigo (San Pietro al Natisone, Udine, Italy). […] All required measures were taken to mitigate the animals’ distress or discomfort, and a designated veterinarian or trained technicians assessed pain levels daily using a Visual Analogue Scale (VAS) ranging from 0 to 10. […]

Bleomycin hydrochloride [BLM]
body weight reduction: 10–15%

Source: publication PMC12519263, “Antifibrotic Efficacy of a Nintedanib–Peptide Conjugate and Diagnostic Potential of a Fluorescent Companion Probe Targeting αVβ6 Integrin in Idiopathic Pulmonary Fibrosis” (ACS Pharmacology & Translational Science, 2025)
